Reference: US20230075007A1 (IMPACT NATURALS, INC., priority 2021, published 2023)

How the values were obtained:
[1] = Dispersion in simulated gastric and intestinal fluids; assay type: physicochemical
Method: Dispersion of the formulations in simulated gastric and intestinal fluids is evaluated over a 12 hour period.

[2] = cited from earlier work
CB2 = CB2 (Homo sapiens, UniProt P34972); conditions: WHO assessment; cited from earlier work
Chain of CB2 (P34972 whole entry, species assumed): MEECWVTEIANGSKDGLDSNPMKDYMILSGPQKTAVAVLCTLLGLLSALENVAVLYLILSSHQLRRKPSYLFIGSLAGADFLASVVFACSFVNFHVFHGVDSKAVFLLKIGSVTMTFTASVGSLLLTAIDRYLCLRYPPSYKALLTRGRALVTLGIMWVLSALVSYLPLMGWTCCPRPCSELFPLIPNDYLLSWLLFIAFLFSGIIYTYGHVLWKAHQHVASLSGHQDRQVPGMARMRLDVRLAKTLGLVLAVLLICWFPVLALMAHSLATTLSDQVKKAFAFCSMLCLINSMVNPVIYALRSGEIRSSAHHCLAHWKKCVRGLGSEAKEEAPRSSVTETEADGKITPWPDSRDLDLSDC

Q: For C=C(C)[C@@H]1CCC(C)=C[C@H]1c1c(O)cc(CCCCC)cc1O [Cannabidiol], which dispersion ([1]; FaSSGF, pH 1.2, 12 hour period) is on record?
A: Its dispersion is “no dispersion”.

Q: What about the “dispersion pattern in the biorelevant media” value ([1]; FaSSIF, FeSSIF and FaSSGF overall) of the same molecule?
A: The value was “poor dispersion”.

Q: What about the dispersion ([1]; FaSSIF, pH 6.5, 12 hour period) of the same molecule?
A: The dispersion was “about 20%”.

Q: What about the dispersion ([1]; FeSSIF, pH 5.5, 12 hour period) of the same molecule?
A: Its dispersion is “about 20%”.

Q: And the aqueous solubility [2]?
A: The aqueous solubility was “approximately 0.013 milligrams per milliliter”.

Q: And the “affinity to CB2” value (CB2)?
A: Its value is “low affinity”.
